Among the data in US11964988B2, “Fused heterocyclic compounds as RET kinase inhibitors” (ARRAY BIOPHARMA INC., priority 2018, dated 2024) are IC50 values, retold here.

The target of test [1] is T1, HEK-293 cells expressing a Kif5b-RET fusion protein (Homo sapiens, UniProt P07949).
T1 construct: KIF5B (N-terminal portion incl. coiled-coil); expressed in transfected cells; host or cells: HEK-293; the other entry of the earlier key: KIF5B (P33176, Kinesin-1 heavy chain)
T1 sequence (P07949 713-1063 limits assumed): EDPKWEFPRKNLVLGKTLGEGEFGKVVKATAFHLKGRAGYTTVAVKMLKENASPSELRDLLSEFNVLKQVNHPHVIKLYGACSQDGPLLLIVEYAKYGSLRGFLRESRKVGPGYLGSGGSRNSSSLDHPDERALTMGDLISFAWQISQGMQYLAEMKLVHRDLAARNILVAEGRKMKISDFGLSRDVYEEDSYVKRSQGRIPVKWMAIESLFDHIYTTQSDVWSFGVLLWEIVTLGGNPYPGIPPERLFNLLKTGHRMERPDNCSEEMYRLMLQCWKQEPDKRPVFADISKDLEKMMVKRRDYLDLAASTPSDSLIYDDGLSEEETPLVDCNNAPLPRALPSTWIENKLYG
Kind of test: RET Cell Assay (phospho-RET Tyr1062). The note with it: HEK-293 Kif5b-RET, 1 hour incubation, phospho-RET normalized to GAPDH; read-out: KIF5B-RET pTYR1062 Cell IC50. Type of test: cell-based. On the procedure:
(§1) The cellular potency of compounds inhibiting RET kinase were determined in HEK-293 cells expressing a Kif5b-RET fusion protein. Briefly, HEK-293 cells expressing a Kif5b-RET fusion protein were plated at 50K cells/well in 96 well poly-D-Lysine coated plates the day prior to the assay. The cells were incubated for 1 hour with test compound in DMEM (Dulbecco's Modified Eagle Medium) at a final DMSO concentration of 0.5%. […] After 1 hour the media was removed, the cells were fixed with 3.8% formaldehyde for 20 min, washed with PBS, and permeabilized for 10 min with 100% methanol. The plates were then washed with PBS-0.05% Tween20, and blocked with LI-COR Blocking solution (LI-COR Catalog No. 927-40000) for 1 hour. Plates were washed with PBS-0.05% Tween20, then incubated with anti-phospho-RET (Tyr1062) (Santa Cruz Catalog No. sc-20252-R) antibody and anti-GAPDH (Millipore Catalog No. MAB374) antibody for 2 hours. The plates were washed with PBS-0.05% Tween20, and incubated with anti-rabbit 680 (Molecular Probes Catalog No. A21109) and anti-mouse 800 (LI-COR Catalog No. 926-32210) secondary antibodies for 1 hour. All antibodies were diluted in LI-COR Block containing 0.05% Tween. The plates were washed with PBS-0.05% Tween20,100 μL PBS is added to each well, and the plates were read on a LI-COR Aerius fluorescent plate reader. The phospho-RET signal was normalized to the GAPDH signal. […] The POC values were fit to a 4 parameter logistic curve. The IC50 value is the point where the curve crosses 50 POC.

Test [2] has as its target T2, HEK-293 cells expressing a G810R mutant RET Kif5b-RET fusion protein (Homo sapiens, UniProt P07949, G810R).
T2 construct: KIF5B (N-terminal portion incl. coiled-coil); expressed in transfected cells; host or cells: HEK-293; the other entry of the earlier key: KIF5B (P33176, Kinesin-1 heavy chain)
T2 sequence (P07949 713-1063 G810R limits assumed): T1 sequence (P07949 713-1063 limits assumed) with G98R
The test is described as follows: RET G810R Mutant Cell Assay (phospho-RET Tyr1062). Type of test: cell-based. Conditions: HEK-293 Kif5b-RET G810R, 1 hour incubation, phospho-RET normalized to GAPDH. Here is the method: as §1, with “expressing a G810R or G810S mutant RET Kif5b-RET fusion” for “expressing a Kif5b-RET fusion”, “μL PBS was added to” for “μL PBS is added to”, “POC values are fit to” for “POC values were fit to”

The next test concerns the target RET kinase Wild Type (Homo sapiens, UniProt P07949). Kind of test: biochemical.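 Note: HTRF kinase activity assay on RET enzyme, 1 h reaction at 22 °C, dual-wavelength readout as percent of control, DMSO-only wells as 100%, pre-quenched reactions as 0%.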
The target in another test is G810R mutant RET kinase (Homo sapiens, UniProt P07949, G810R). Kind of test: biochemical.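 Note: HTRF KinEASE-TK enzymatic assay with 1 nM recombinant RET G810R, 1 h at 22 °C, dual-wavelength ratiometric readout, 100% control without compound, 0% from pre-quenched reactions.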
G810R mutant RET kinase, sequence (P07949 29-1114 G810R): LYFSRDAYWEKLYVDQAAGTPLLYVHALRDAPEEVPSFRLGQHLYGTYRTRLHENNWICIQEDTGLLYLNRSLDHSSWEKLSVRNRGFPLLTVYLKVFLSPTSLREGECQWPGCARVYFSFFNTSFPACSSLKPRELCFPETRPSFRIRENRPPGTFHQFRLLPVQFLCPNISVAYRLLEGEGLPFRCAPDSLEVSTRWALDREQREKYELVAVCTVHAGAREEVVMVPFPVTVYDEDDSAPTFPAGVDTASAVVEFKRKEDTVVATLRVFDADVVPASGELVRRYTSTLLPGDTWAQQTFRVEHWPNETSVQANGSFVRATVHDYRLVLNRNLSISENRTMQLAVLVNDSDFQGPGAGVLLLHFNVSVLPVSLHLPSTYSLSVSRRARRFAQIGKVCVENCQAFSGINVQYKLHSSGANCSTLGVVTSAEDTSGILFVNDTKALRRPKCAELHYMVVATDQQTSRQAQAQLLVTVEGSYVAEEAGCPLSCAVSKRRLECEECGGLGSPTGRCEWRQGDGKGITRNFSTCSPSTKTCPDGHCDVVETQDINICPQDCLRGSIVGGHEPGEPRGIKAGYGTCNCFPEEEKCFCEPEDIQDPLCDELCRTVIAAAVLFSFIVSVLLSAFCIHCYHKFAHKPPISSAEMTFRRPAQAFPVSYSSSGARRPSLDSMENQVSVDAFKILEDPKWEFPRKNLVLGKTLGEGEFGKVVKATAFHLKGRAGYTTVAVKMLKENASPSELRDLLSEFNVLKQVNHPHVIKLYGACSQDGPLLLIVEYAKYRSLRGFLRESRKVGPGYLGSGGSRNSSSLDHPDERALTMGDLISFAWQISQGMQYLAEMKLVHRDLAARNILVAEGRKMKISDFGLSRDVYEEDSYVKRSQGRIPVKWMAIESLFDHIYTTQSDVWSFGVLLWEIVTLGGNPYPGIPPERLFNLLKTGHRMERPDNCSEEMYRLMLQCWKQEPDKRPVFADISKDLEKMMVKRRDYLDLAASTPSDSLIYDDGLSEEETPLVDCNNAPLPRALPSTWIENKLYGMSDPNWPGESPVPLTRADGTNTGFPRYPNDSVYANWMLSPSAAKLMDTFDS
A further test addresses G810S mutant RET kinase (Homo sapiens, UniProt P07949, G810S). The test is described as follows: biochemical.
For another test, the target named is RET kinase V804M (Homo sapiens, UniProt P07949, V804M). The test is described as follows: RET Enzyme Assay (CisBio HTRF KinEASE-TK), V804M. Format: biochemical. Conditions: read-out: RET V804M Enz FRET IC50. In general terms: TR-FRET usually uses a lanthanide donor and a delayed reading to cut background.
RET kinase V804M, sequence (P07949 29-1114 V804M): as the sequence (P07949 29-1114 G810R) above, with V776M, R782G counted along it

Molecules are shown by their SMILES. Positions count from the first letter of the chain named.

RET kinase Wild Type, sequence (P07949 29-1114): as the sequence (P07949 29-1114 G810R) above, with R782G counted along it
G810S mutant RET kinase, sequence (P07949 29-1114 G810S): as the sequence (P07949 29-1114 G810R) above, with R782S counted along it
Description for RET kinase V804M: The potency of compounds inhibiting several different RET kinase forms (Wild Type, V804M, G810R, & G810S) were determined using CisBio's HTRF® KinEASE™-TK assay technology. […] After a 1 hour incubation at 22° C., the extent of reaction was determined using a PerkinElmer EnVision multimode plate reader via HTRF dual wavelength detection, and the percent of control (POC) was calculated using a ratiometric emission factor. One hundred POC was determined using DMSO only samples (no compound present), and 0 POC was determined using pre-quenched control reactions.

In general, IC50 refers to the concentration that gives 50% inhibition. In the case of `CC(C)n1c2c(c3c(N)ncnc31)-c1cc3ccccc3n1C(=O)NC2` [Example 69, 1-amino-5-isopropyl-6,7-dihydropyrimido[5″,4″:4′,5′]pyrrolo[2′,3′:5,6][1,3]diazepino[1,7-a]indol-8(5H)-one], the IC50 in test [1] came to 103 nM; in test [2] it was 394 nM; against RET kinase Wild Type, 34 nM; at G810R mutant RET kinase it was 47 nM; on G810S mutant RET kinase it was 65 nM.

`Nc1ncnc2c1c1c(n2[C@H]2C[C@@H](CO)C2)CCC(O)c2c-1noc2C1CC1` (some centres unmarked) [Example 136, 11-Amino-3-cyclopropyl-7-((1s,3s)-3-(hydroxymethyl)cyclobutyl)-4,5,6,7-tetrahydroisoxazolo[4″,3″:6′,7′]cyclohepta[1′,2′:4,5]pyrrolo[2,3-d]pyrimidin-4-ol 2,2,2-trifluoroacetate]: the IC50 came out at 551 nM at RET kinase V804M, 201 nM on RET kinase Wild Type, 274 nM on G810R mutant RET kinase and 817 nM against G810S mutant RET kinase.

Take `CC(C)n1c2c(c3c(N)ncnc31)-c1noc(C3CC3)c1CN(CCO)C2` [Example 40, 2-(11-amino-3-cyclopropyl-7-isopropyl-6,7-dihydroisoxazolo[4,3-c]pyrimido[5′,4′:4,5]pyrrolo[3,2-e]azepin-5(4H)-yl)ethan-1-ol 2,2,2-trifluoroacetate]: the concentration for half-maximal inhibition (IC50) at RET kinase V804M is 2200 nM; against RET kinase Wild Type, 621 nM; at G810R mutant RET kinase, 724 nM; against G810S mutant RET kinase it was 973 nM.

As for `Nc1ncnc2[nH]c3c(c12)-c1noc(C2CC2)c1C(=O)NC3` [Example 66, 11-amino-3-cyclopropyl-6,7-dihydroisoxazolo[4,3-c]pyrimido[5′,4′:4,5]pyrrolo[3,2-e]azepin-4(5H)-one 2,2,2-trifluoroacetate], the IC50 at RET kinase V804M worked out at 6830 nM; against RET kinase Wild Type, 1790 nM; against G810R mutant RET kinase it was 2180 nM; at G810S mutant RET kinase, 2300 nM.

With `CC(C)n1c2c(c3c(N)ncnc31)-c1noc(C3CC3)c1C(=O)N(CCN1CCS(=O)(=O)CC1)C2` [Example 9, 11-amino-3-cyclopropyl-5-(2-(1,1-dioxidothiomorpholino)ethyl)-7-isopropyl-6,7-dihydroisoxazolo[4,3-c]pyrimido[5′,4′:4,5]pyrrolo[3,2-e]azepin-4(5H)-one], the IC50 was 533 nM at RET kinase V804M, 103 nM on RET kinase Wild Type, 224 nM on G810R mutant RET kinase and 298 nM against G810S mutant RET kinase.

Turning to `COc1ccc(-n2c3c(c4c(N)ncnc42)-c2noc(C4CC4)c2C(O)CC3)cn1` (centres unmarked) [Example 114, 11-Amino-3-cyclopropyl-7-(6-methoxypyridin-3-yl)-4,5,6,7-tetrahydroisoxazolo[4″,3″:6′,7′]cyclohepta[1′,2′:4,5]pyrrolo[2,3-d]pyrimidin-4-ol 2,2,2-trifluoroacetate], the 50% inhibitory concentration (IC50) on RET kinase V804M is 1050 nM; against RET kinase Wild Type it was 357 nM; against G810R mutant RET kinase, 435 nM; at G810S mutant RET kinase, 282 nM.

For `CC(C)n1c2c(c3c(N)ncnc31)-c1noc(C3CC3)c1C(=O)N(CCc1cnn(C)c1)C2` [Example 16, 11-amino-3-cyclopropyl-7-isopropyl-5-(2-(1-methyl-1H-pyrazol-4-yl)ethyl)-6,7-dihydroisoxazolo[4,3-c]pyrimido[5′,4′:4,5]pyrrolo[3,2-e]azepin-4(5H)-one], the half-inhibitory concentration (IC50) on RET kinase V804M came out at 1790 nM; at RET kinase Wild Type, 205 nM; against G810R mutant RET kinase, 354 nM; at G810S mutant RET kinase, 648 nM.

As to `Nc1ncnc2c1c1c(n2C2CCOC2)CCC(=O)c2c-1noc2C1CC1` (centres unmarked) [Example 141, 11-Amino-3-cyclopropyl-7-(tetrahydrofuran-3-yl)-6,7-dihydroisoxazolo[4″,3″:6′,7′]cyclohepta[1′,2′:4,5]pyrrolo[2,3-d]pyrimidin-4(5H)-one], the IC50 at RET kinase V804M was 415 nM; against RET kinase Wild Type, 139 nM; on G810R mutant RET kinase, 211 nM; at G810S mutant RET kinase, 405 nM.

On to `CO[C@H]1CCc2c(c3c(N)ncnc3n2C(C)C)-c2noc(C3CC3)c21` (single isomer, unassigned) [Example 59], for which the IC50 on RET kinase V804M came out at 749 nM; on RET kinase Wild Type, 275 nM; on G810R mutant RET kinase it was 308 nM; against G810S mutant RET kinase it was 859 nM.

For `CC(C)n1c2c(c3c(N)ncnc31)-c1noc(C3CC3)c1CN(c1ccn(C)n1)C2` [Example 34, 3-cyclopropyl-7-isopropyl-5-(1-methyl-1H-pyrazol-3-yl)-4,5,6,7-tetrahydroisoxazolo[4,3-c]pyrimido[5′,4′:4,5]pyrrolo[3,2-e]azepin-11-amine], the IC50 on RET kinase V804M was determined as 805 nM; at RET kinase Wild Type it was 227 nM; against G810R mutant RET kinase it was 288 nM; at G810S mutant RET kinase, 397 nM.

Take `CC(C)n1c2c(c3c(N)ncnc31)-c1noc(C3CC3)c1C(=O)N(c1cnn(C)c1)C2` [Example 18, 11-amino-3-cyclopropyl-7-isopropyl-5-(1-methyl-1H-pyrazol-4-yl)-6,7-dihydroisoxazolo[4,3-c]pyrimido[5′,4′:4,5]pyrrolo[3,2-e]azepin-4(5H)-one]: the IC50 at RET kinase V804M came out at 692 nM; against RET kinase Wild Type it was 153 nM; at G810R mutant RET kinase, 253 nM; against G810S mutant RET kinase it was 397 nM.

Turning to `CC(C)n1c2c(c3c(N)ncnc31)-c1noc(C3CC3)c1CN(C)C2` [Example 31, 3-cyclopropyl-7-isopropyl-5-methyl-4,5,6,7-tetrahydroisoxazolo[4,3-c]pyrimido[5′,4′:4,5]pyrrolo[3,2-e]azepin-11-amine], the IC50 at RET kinase V804M was 2210 nM; on RET kinase Wild Type, 571 nM; at G810R mutant RET kinase it was 1320 nM; on G810S mutant RET kinase it was 1320 nM.

`Nc1ncnc2[nH]c3c(c12)-c1noc(C2CC2)c1C(=O)CC3` [Example 111, 11-amino-3-cyclopropyl-6,7-dihydroisoxazolo[4″,3″:6′,7′]cyclohepta[1′,2′:4,5]pyrrolo[2,3-d]pyrimidin-4(5H)-one]: the IC50 was 6240 nM on RET kinase V804M, 3440 nM against RET kinase Wild Type, 3300 nM at G810R mutant RET kinase and 2710 nM at G810S mutant RET kinase.
